ChEMBL document CHEMBL5653631, “A Potent and Selective ULK1 Inhibitor Suppresses Autophagy and Sensitizes Cancer Cells to Nutrient Stress” (iScience, 2018)

Key:
[1] = molecular target: Serine/threonine-protein kinase WNK2 (Homo sapiens) (UniProt Q9Y3S1); experiment: Inhibition of human recombinant Wnk2 at 500 nM in presence of ATP by radiometric assay relative to control
[2] = molecular target: T1, Protein kinase C epsilon type (Homo sapiens) (UniProt Q02156); experiment: Inhibition of human recombinant PKCe at 500 nM in presence of ATP by radiometric assay relative to control
T1 sequence (whole entry): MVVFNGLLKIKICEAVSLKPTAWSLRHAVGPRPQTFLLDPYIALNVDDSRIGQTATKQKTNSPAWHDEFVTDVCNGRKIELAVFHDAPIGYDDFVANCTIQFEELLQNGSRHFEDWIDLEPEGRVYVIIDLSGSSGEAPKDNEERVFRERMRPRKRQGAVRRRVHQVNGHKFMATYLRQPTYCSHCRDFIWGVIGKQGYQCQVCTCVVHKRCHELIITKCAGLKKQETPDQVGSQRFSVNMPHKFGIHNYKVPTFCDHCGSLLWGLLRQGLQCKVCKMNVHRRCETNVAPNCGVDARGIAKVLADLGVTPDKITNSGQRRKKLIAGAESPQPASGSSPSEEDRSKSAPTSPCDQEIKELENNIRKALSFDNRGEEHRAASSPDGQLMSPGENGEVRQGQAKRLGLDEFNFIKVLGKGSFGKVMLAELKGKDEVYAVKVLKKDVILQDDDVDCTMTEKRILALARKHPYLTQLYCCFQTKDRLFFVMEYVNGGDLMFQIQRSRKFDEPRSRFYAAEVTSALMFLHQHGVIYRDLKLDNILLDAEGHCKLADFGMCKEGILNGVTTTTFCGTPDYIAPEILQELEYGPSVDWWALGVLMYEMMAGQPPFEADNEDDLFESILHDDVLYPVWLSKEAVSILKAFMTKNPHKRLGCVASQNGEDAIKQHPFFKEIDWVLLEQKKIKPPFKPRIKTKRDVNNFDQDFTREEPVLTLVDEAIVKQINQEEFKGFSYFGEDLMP

[3] = molecular target: T2, Serine/threonine-protein kinase TAO3 (Homo sapiens) (UniProt Q9H2K8); experiment: Inhibition of human recombinant TAO3 at 500 nM related to control ULK1
T2 sequence (whole entry): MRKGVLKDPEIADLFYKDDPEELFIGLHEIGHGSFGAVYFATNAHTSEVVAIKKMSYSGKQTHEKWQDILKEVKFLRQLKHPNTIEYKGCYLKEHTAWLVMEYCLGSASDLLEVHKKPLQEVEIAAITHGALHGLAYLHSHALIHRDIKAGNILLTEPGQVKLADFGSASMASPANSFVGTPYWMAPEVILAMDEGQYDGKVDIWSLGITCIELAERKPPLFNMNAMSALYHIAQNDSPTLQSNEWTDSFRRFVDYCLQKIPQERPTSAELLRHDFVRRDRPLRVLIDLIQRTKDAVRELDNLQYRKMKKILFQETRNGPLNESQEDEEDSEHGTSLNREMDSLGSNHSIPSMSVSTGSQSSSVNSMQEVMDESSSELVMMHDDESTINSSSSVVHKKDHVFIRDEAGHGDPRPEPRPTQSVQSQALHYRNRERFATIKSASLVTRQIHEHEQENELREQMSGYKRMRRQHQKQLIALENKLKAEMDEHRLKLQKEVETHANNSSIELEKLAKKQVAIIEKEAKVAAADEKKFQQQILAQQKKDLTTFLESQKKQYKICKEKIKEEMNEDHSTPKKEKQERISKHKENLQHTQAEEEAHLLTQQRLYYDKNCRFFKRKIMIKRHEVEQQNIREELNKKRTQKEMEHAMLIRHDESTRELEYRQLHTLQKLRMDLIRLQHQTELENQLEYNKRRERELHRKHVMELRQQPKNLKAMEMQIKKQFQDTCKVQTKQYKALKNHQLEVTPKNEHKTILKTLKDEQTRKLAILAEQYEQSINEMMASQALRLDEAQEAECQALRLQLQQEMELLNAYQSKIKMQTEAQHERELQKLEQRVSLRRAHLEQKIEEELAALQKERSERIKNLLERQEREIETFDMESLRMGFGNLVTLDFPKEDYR

[4] = molecular target: Insulin receptor (Homo sapiens) (UniProt P06213); experiment: Inhibition of human recombinant INSR at 500 nM in presence of ATP by radiometric assay relative to control
[5] = molecular target: Calcium/calmodulin-dependent protein kinase type 1G (Homo sapiens) (UniProt Q96NX5); experiment: Inhibition of human recombinant CaMK1g at 500 nM in presence of ATP by radiometric assay relative to control
[6] = molecular target: Vascular endothelial growth factor receptor 3 (Homo sapiens) (UniProt P35916); experiment: Inhibition of human recombinant FLT4 at 40 nM in presence of ATP by radiometric assay relative to control
[7] = molecular target: Wee1-like protein kinase 2 (Homo sapiens) (UniProt P0C1S8); experiment: Inhibition of human recombinant Wee1B at 40 nM in presence of ATP by radiometric assay relative to control
[8] = molecular target: TGF-beta receptor type-2 (Homo sapiens) (UniProt P37173); experiment: Inhibition of human recombinant TGFbR2 at 40 nM related to control ULK1
[9] = molecular target: Serine/threonine-protein kinase pim-1 (Homo sapiens) (UniProt P11309); experiment: Inhibition of human recombinant PIM1 at 40 nM in presence of ATP by radiometric assay relative to control
[10] = molecular target: T3, Serine/threonine-protein kinase Sgk1 (Homo sapiens) (UniProt O00141); experiment: Inhibition of human recombinant SGK1 at 40 nM related to control ULK1
T3 sequence (whole entry): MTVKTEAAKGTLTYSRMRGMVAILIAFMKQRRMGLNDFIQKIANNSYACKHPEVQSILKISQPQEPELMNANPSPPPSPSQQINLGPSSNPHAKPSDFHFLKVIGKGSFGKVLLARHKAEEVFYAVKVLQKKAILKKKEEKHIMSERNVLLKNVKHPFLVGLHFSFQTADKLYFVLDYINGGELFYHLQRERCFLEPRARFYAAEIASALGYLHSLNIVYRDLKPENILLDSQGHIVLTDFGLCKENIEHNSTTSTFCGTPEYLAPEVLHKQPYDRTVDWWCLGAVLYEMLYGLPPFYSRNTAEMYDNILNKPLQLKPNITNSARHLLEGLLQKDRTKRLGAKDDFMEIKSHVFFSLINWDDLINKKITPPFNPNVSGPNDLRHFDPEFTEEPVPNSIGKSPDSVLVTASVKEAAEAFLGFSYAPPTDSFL

[11] = molecular target: Serine/threonine-protein kinase 38-like (Homo sapiens) (UniProt Q9Y2H1); experiment: Inhibition of human recombinant NDR2 at 40 nM in presence of ATP by radiometric assay relative to control
Serine/threonine-protein kinase 38-like (Homo sapiens), sequence (Q9Y2H1 2-464 limits assumed): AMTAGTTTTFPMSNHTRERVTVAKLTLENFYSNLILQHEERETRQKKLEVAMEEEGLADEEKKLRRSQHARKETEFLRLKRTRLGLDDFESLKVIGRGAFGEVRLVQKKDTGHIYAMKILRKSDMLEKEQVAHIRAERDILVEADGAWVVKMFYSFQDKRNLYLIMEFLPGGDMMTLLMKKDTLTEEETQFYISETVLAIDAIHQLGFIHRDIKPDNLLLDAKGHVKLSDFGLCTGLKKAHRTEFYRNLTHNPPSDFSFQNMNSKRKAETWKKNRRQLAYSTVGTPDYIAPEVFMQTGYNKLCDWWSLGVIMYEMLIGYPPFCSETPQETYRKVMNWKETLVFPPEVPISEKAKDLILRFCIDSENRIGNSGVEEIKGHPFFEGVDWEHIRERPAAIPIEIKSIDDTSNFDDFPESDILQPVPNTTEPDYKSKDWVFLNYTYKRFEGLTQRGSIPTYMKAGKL

Vascular endothelial growth factor receptor 3 (Homo sapiens), sequence (P35916 whole entry): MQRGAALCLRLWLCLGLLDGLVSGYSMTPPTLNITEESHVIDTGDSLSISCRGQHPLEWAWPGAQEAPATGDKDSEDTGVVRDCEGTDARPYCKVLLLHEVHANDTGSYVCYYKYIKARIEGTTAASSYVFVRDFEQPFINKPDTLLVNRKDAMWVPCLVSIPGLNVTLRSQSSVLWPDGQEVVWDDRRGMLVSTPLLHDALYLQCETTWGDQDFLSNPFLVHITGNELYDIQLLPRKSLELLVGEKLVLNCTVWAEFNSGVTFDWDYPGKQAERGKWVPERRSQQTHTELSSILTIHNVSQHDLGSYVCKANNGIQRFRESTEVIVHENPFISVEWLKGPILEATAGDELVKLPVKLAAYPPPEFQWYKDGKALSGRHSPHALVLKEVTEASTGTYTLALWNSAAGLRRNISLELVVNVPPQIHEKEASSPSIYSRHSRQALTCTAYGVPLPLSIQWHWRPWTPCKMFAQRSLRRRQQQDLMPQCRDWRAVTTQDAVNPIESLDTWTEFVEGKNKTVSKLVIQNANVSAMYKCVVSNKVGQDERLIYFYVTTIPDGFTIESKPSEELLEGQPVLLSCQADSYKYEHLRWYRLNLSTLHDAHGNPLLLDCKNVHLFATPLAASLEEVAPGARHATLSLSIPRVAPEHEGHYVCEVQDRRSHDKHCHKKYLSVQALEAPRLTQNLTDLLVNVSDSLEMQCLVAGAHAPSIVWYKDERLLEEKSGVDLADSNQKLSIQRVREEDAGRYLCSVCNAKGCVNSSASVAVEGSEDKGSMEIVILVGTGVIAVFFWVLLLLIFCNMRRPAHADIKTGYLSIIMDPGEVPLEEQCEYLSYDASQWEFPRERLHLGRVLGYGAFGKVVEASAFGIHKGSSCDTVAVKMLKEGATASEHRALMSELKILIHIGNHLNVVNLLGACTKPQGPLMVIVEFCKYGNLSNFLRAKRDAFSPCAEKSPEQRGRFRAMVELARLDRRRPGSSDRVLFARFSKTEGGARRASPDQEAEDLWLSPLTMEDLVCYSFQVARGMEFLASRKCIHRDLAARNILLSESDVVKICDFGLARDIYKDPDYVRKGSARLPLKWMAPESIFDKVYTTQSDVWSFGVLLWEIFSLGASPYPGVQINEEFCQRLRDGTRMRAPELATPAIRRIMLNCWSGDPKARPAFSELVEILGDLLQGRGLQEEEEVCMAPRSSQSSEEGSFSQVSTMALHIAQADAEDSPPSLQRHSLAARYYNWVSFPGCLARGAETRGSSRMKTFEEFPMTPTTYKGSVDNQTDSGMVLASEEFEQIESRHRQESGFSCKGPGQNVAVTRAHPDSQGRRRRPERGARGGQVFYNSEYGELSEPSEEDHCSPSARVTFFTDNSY
Wee1-like protein kinase 2 (Homo sapiens), sequence (P0C1S8 whole entry, looked up): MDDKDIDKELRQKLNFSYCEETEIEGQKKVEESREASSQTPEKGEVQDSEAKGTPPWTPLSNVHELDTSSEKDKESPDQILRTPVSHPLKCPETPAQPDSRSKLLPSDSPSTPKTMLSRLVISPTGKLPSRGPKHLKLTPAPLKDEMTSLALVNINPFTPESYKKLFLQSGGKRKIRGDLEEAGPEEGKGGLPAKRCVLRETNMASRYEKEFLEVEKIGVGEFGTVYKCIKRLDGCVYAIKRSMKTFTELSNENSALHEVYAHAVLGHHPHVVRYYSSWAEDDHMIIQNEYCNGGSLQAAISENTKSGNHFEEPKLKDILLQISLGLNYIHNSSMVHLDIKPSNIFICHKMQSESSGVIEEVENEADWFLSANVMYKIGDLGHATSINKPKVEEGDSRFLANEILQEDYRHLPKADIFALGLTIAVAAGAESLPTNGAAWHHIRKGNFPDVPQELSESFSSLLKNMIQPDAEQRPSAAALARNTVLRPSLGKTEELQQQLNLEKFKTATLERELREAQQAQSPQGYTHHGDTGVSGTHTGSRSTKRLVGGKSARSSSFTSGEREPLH
Calcium/calmodulin-dependent protein kinase type 1G (Homo sapiens), sequence (Q96NX5 whole entry): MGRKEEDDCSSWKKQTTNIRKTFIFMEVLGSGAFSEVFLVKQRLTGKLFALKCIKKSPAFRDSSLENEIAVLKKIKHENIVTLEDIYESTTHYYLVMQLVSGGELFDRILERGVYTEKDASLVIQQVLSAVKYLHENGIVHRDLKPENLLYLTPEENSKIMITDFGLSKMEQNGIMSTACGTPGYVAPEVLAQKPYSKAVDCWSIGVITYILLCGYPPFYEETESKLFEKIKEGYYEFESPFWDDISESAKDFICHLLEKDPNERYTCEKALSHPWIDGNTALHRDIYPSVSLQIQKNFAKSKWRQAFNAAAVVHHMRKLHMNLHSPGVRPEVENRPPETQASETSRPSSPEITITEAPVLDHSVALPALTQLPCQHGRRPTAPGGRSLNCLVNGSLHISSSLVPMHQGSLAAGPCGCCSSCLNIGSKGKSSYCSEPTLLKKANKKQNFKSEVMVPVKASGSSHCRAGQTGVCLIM
Serine/threonine-protein kinase pim-1 (Homo sapiens), sequence (P11309 whole entry, looked up): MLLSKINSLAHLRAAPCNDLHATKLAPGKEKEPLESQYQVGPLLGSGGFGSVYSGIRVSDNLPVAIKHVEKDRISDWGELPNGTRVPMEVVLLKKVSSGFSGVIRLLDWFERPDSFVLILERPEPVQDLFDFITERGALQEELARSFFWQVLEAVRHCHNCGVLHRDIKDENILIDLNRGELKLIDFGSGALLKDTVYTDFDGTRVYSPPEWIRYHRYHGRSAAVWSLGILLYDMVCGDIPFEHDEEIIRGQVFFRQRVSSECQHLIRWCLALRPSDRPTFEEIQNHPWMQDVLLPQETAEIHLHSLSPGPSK
Insulin receptor (Homo sapiens), sequence (P06213 28-758 limits assumed): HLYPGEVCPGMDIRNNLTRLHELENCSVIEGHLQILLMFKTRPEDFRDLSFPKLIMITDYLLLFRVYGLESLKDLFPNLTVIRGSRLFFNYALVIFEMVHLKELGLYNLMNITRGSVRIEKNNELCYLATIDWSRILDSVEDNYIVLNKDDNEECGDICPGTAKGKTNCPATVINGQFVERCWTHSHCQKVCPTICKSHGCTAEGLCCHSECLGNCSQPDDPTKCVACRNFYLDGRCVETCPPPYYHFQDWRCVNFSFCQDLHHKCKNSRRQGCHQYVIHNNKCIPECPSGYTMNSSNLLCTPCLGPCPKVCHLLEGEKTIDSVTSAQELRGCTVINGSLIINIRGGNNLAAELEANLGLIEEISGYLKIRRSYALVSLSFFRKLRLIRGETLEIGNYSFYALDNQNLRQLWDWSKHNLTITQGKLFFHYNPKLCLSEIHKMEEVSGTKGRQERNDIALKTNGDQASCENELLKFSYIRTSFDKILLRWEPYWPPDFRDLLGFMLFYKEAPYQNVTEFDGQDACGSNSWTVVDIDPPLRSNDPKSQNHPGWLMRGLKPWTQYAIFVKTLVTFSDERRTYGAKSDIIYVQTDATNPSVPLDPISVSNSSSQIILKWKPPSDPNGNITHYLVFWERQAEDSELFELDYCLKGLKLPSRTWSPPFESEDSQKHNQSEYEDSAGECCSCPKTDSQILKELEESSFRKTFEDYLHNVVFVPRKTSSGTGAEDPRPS
Insulin receptor (Homo sapiens), sequence (P06213 763-1382 limits assumed): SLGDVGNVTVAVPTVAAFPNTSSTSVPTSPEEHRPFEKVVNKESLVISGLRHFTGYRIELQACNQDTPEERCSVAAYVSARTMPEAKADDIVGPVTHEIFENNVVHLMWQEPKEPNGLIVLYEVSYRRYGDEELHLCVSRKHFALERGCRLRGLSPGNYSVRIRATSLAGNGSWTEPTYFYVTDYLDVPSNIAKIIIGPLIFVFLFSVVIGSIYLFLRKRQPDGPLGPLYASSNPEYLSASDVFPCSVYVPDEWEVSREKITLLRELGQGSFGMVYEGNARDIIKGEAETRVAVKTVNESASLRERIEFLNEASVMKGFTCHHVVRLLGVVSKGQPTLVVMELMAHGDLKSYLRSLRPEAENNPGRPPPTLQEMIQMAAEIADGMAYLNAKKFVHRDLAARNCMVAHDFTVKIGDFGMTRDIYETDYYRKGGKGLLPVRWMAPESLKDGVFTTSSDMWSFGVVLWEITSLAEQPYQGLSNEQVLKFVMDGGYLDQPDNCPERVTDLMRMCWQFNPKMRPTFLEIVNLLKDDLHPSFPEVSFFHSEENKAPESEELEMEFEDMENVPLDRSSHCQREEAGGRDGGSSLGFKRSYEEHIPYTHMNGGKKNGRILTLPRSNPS

Question: What does the source list for `CNC(=O)c1ccccc1Oc1nc(Nc2cc(OC)c(OC)c(OC)c2)ncc1Br`?
Answer: inhibition [1]: 1%; inhibition [2]: 0%; fold change (FC) [3]: 0; inhibition [4]: 0%; inhibition [5]: 6%

Question: Which results are given for `O=C(N[C@@H](C1CC1)C(F)(F)F)c1cc(-c2cnn3cc(-c4ccc(F)cc4)cnc23)cs1`?
Answer: inhibition [6]: 19%; inhibition [7]: 0%; fold change (FC) [8]: 0.64; inhibition [9]: 5%; fold change (FC) [10]: 0.1; inhibition [11]: 0%
